Assay results published in patent US8962609B2, “Pyrimidine compounds as inhibitors of protein kinases IKK epsilon and/or TBK-1, processes for their preparation, and pharmaceutical compositions containing them” (Domainex Limited, priority 2010, dated 2015).
pIC50: −log10 of the molar value. Like-named read-outs stand apart in the source and are kept apart here.

How the values were obtained:
[1] = molecular target: IKKε (Homo sapiens (Human), UniProt Q14164); experiment: IKKε time-resolved fluorescence Lanthascreen kinase inhibition assay; assay type: biochemical
Protocol: (§1) Compounds of the invention (synthesised as described below) were tested for activity against the IKKε and TBK-1 enzyme as follows:
(§2) Inhibitions studies were performed using a time-resolved fluorescence-based Lanthascreen™ assay. Phosphorylation of a fluorescein-labelled substrate peptide is measured using terbium-labeled phosphospecific antibodies. Terbium is excited at 340 nm and the FRET energy transfer to fluorescein is measured at 495 and 520 nm. The emission ratio between 520 and 495 is a measure of the level of phosphorylation of the substrate by the kinase.
(§3) Kinase inhibition assays (10 μL) were performed at 20° C. in 384-well plate format. Compound IC50 values were determined at the apparent Km for ATP (20 μM) based on a radiometric assay (Invitrogen) using 8 or 10 point curves in duplicate. The final reaction conditions contained 400 nM fluorescein-IkBα substrate ([…]), 20 μM ATP, 2 nM or 8 nM IKKε or TBK1 kinase respectively, and 3% DMSO in kinase assay buffer consisting of 50 mM HEPES (pH 7.5), 10 mM MgCl, 1 mM EGTA, 0.01% Brij-35.
(§4) Compound dilutions were prepared from 10 mM DMSO stocks by dilution into DMSO.
(§5) The kinase phosphorylation assay was initiated by the addition of the kinase and the reaction was allowed to proceed for 1 hr or 2.5 hr for IKKε and TBK-1 kinase respectively. […] The reaction was stopped by the addition of 10 mM EDTA, and phosphorylation was detected after a 1 hr incubation with 1.5 nM terbium-labelled antibody against phosphorylation at Serine 32 on the IkBα[…]peptide, both in TR-FRET dilution buffer (Invitrogen).
(§6) In the data presented for IKKε, <9 μM means having an activity in the range from 300 nM≦9 μM; and <300 nM means having an activity in the range 30 nM≦300 nM; and for the data presented for TBK-1, <3 μM means having an activity in the range 300 nM≦3 μM, and <300 nM means having an activity in the range 30 nM≦300 nM.

[2] = molecular target: TBK-1 (Homo sapiens (Human), UniProt Q9UHD2); experiment: biochemical
Protocol: as §1, §2, §3, §4, §5, §6

[3] = molecular target: IKKβ (Homo sapiens (Human), UniProt O14920); experiment: IKKβ radiolabelled P33 ATP assay (Kinase Hotspot Technology); assay type: biochemical; settings: 1 μM ATP; for inhibition at 1 µM: single point at the concentration (1000 nM), read-out: IKK-β percentage inhibition (in brackets); for pIC50: single point, read-out: Concentration of compounds required for ~ 50% inhibition, IKK-β
Protocol: (§7) The compounds of examples DMX-1,8,9,14 and 16 were tested for activity against TBK1, IKKβ, Jnk1 and Jnk3 in addition to IKK-ε and TBK-1. TBK-1, IKKβ, Jnk1 and Jnk3 were screened using radiolabelled P^33 ATP using the Kinase Hotspot Technology of Reaction Biology Corp. Screening against Jnk-1 and Jnk-3 was carried out at the Km for ATP. IKK-ε and TBK-1 screening was also carried out as described above at the Km for ATP for these enzymes. […] TBK-1, IKKβ and Jnk1 were screened using radiolabelled P^33 ATP using the Kinase Hotspot Technology of Reaction Biology Corp. IKK-ε and TBK-1 screening was also carried out as described above at the Km for ATP for these enzymes.

[4] = molecular target: Jnk1 (Homo sapiens (Human), UniProt P45983); experiment: Jnk1 radiolabelled P33 ATP assay (Kinase Hotspot Technology); assay type: biochemical; settings: at the Km for ATP; read-out: Concentration of compounds required for ~ 50% inhibition, Jnk-1
Protocol: as §7

[5] = molecular target: Jnk3 (Homo sapiens (Human), UniProt P53779); experiment: Jnk3 radiolabelled P33 ATP assay (Kinase Hotspot Technology); assay type: biochemical; settings: at the Km for ATP; read-out: Concentration of compounds required for ~ 50% inhibition, Jnk-3
Protocol: as §7

[6] = 20 μM ATP (apparent Km), 2 nM kinase, 1 hr, values are activity bands, read-out: Inhibition of IKKε IC50
[7] = at the Km for ATP, read-out: Concentration of compounds required for ~ 50% inhibition, IKK-ε
[8] = 20 μM ATP (apparent Km), 8 nM kinase, 2.5 hr, values are activity bands, read-out: Inhibition of TBK-1 IC50
[9] = at the Km for ATP, read-out: Concentration of compounds required for ~ 50% inhibition, TBK-1

Sequence of IKKε (Q14164 whole entry): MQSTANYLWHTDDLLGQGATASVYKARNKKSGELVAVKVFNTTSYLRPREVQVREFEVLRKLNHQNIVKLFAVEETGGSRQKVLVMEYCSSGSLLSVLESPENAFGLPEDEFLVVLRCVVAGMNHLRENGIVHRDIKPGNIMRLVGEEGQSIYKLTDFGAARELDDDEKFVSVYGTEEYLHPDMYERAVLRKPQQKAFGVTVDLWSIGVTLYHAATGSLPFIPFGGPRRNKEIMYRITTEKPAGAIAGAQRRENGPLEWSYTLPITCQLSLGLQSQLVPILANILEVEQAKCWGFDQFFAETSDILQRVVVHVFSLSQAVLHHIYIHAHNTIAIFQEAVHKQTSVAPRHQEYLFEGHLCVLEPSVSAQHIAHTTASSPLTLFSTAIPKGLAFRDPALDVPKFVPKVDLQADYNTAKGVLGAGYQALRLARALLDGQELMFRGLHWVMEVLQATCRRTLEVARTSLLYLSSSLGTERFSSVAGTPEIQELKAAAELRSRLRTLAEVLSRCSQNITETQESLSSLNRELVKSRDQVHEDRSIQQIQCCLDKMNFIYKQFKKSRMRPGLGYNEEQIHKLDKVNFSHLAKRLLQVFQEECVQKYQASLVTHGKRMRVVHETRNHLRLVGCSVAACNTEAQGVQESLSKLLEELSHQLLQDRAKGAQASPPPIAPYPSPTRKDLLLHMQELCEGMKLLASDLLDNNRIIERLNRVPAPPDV
Sequence of TBK-1 (Q9UHD2 whole entry): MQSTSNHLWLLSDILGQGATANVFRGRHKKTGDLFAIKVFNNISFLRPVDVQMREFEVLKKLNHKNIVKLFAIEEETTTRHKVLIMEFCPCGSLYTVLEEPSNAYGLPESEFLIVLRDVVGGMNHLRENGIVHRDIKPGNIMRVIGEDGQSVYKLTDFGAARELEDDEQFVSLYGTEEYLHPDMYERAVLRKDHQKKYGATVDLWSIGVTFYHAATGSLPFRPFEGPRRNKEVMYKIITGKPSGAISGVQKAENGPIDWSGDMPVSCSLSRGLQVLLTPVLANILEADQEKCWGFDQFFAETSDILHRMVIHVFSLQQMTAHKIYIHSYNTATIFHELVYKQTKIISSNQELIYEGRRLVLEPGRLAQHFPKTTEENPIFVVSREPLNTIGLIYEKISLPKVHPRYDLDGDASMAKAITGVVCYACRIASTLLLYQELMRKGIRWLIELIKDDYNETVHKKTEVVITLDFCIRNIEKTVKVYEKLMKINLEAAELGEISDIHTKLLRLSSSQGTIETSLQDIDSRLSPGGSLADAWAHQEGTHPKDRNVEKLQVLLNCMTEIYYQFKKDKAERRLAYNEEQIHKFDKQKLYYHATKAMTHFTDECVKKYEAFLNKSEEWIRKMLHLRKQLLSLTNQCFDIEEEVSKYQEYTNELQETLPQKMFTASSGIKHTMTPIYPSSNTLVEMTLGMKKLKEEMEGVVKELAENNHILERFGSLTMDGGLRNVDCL
Sequence of IKKβ (O14920 whole entry): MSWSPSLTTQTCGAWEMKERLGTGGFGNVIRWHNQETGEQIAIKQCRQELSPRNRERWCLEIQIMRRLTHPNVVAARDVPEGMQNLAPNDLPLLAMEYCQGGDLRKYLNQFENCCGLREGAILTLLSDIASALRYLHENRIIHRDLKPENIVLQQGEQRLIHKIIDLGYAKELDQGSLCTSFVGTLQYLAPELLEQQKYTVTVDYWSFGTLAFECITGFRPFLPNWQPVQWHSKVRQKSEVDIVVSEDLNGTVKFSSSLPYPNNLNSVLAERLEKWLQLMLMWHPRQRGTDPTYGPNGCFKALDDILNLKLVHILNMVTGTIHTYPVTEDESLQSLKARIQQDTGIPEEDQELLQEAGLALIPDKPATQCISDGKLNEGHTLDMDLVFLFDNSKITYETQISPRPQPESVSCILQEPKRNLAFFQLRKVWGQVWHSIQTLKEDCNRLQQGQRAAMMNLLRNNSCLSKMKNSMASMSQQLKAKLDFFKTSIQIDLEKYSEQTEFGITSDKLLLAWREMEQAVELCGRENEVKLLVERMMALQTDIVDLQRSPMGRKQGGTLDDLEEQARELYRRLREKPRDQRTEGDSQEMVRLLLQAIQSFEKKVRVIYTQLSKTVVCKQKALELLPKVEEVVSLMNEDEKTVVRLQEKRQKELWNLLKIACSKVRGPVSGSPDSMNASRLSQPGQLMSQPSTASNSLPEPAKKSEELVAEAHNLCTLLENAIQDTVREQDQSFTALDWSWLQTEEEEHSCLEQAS
Sequence of Jnk1 (P45983 whole entry): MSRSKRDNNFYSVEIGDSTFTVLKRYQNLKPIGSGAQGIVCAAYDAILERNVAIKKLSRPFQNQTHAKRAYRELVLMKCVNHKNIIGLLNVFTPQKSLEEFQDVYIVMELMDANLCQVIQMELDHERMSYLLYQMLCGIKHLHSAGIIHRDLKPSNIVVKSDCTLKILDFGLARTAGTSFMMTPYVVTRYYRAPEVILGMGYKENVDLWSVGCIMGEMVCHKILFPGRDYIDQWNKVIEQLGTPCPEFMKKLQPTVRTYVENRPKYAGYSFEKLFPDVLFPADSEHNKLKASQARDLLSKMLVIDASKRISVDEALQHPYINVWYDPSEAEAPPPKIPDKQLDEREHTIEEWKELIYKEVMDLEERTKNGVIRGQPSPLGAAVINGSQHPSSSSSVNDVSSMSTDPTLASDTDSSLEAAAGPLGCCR
Sequence of Jnk3 (P53779 whole entry): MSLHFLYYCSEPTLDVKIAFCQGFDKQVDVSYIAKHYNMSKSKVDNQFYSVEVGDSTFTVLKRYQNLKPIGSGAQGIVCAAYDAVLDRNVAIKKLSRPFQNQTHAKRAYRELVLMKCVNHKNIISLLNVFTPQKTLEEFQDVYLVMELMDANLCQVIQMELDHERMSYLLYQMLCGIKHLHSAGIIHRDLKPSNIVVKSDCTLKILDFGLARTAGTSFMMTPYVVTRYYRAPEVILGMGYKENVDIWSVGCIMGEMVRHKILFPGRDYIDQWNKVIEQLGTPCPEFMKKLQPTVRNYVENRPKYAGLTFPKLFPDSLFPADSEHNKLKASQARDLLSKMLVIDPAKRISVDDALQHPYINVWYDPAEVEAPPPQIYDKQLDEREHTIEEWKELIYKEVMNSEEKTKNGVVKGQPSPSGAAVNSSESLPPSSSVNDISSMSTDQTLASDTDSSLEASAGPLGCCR

SMILES | pIC50 [1, 6] | pIC50 [1, 7] | pIC50 [2, 8] | pIC50 [2, 9] | inhibition at 1 µM [3] | pIC50 [3] | pIC50 [4] | pIC50 [5]
N#Cc1cc(-c2ccnc(Nc3ccc(C(N)=O)cc3)n2)ccc1N1CCCC1 [DMX-8] | > 7.52 | 8.52 | > 7.52 | 8.52 | 50% | 6.00 | 6.45 | < 5.00
N#Cc1cc(-c2ccnc(Nc3ccc(N4CCOCC4)nc3)n2)ccc1N1CCCC1 [DMX-16] | > 7.52 | 8.70 | > 7.52 | 9.00 | 43% | 6.00 | 6.65 | < 5.00
